According to BindingDB's records for doi:10.1021/jm9606507 (Warner-Lambert, 1997):

Assay: Inhibition of Endothelin A receptor mediated (ET-1) release of arachidonic acid from rabbit renal artery vascular smooth muscle cells

IC50: 0.98 nM
SMILES: COc1ccc(C(=O)/C(Cc2cc(OC)c(OC)c(OC)c2)=C(\C(=O)O)c2ccc3c(c2)OCO3)cc1C [Sodium; (Z)-2-benzo[1,3]dioxol-5-yl-4-(4-methoxy-3-methyl-phenyl)-4-oxo-3-(3,4,5-trimethoxy-benzyl)-but-2-enoate]
